According to BindingDB's records for patent US12077506 (Nikang Therapeutics, 2024):

Biological target: Endothelial PAS domain-containing protein 1 (Homo sapiens, UniProt Q99814)
Experiment: VEGF ELISA Assay
Experimental: Four hours later, compounds were dispensed into wells by Tecan D300e digital dispenser with starting concentration of 10 uM and log of dilution down to 1 nM as final concentration. Each concentration of treatment was performed in duplicate. About 20 hours later, medium was removed and fresh medium was added, followed by compounds treatment as described above. After 24 hours, cell culture medium was collected to determine VEGF concentration using an ELISA kit (R&D systems, cat #DVE00) following the manufacturer's instruction.

Sequence of Endothelial PAS domain-containing protein 1 (Q99814 whole entry, the tested form may be a part): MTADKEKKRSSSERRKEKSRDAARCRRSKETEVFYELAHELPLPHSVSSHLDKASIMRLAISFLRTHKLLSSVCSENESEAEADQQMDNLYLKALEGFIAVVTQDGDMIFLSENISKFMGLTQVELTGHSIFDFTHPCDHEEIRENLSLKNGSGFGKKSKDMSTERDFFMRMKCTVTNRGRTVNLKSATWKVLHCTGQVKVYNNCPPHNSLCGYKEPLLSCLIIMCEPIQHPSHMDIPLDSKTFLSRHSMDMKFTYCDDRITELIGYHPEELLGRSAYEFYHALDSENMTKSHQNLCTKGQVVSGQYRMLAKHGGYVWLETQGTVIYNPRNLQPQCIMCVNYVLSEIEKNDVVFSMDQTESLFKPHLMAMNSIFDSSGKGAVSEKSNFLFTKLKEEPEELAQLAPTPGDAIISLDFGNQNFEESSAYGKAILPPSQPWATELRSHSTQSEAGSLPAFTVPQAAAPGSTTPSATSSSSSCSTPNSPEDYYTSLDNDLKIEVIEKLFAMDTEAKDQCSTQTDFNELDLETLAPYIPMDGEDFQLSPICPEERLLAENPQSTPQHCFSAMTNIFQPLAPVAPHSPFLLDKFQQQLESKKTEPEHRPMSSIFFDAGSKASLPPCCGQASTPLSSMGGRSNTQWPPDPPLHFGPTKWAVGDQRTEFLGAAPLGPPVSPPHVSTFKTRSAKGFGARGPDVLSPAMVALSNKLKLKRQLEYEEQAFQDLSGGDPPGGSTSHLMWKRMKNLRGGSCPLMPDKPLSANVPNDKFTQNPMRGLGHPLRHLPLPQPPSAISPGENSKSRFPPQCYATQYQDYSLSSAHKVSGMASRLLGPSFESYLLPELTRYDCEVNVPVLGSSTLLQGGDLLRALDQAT

EC50: 4 nM
Structure (SMILES): OC1c2c(ccc(Oc3cc(F)cc(F)c3)c2C(F)F)C(F)(F)C1(F)F (stereo unspecified) [US12077506, Compound I-4]
